Ends that are not written are not given here.
Columns and labels:
[1] = tested on: C. elegans PDE dopaminergic neurons; assay: C. elegans neurite length assay (A30P a-syn); assay type: in vivo; conditions: A30P human a-syn; RFP-tagged peptide version based on the nematode sequence of CHMP2B
Description: C. elegans strains were grown and maintained under standard conditions at 22-23° (4). BZ555 [dat-1p::gfp] was obtained from the C. elegans Genetics Center (CGC; University of Minnesota, St Paul, MN, USA), TWH1 ([dat-1p::a-syn(A30P), ges-1p::DsRed]; [dat-1p::gfp]) was obtained by crossing BZ555 with A30P a-syn transgenic animals (kindly provided by Dr. Takeshi Iwatsubo, University of Tokyo) (5).
The peptide construct (pPD97.78_osm-6p_TagRFP_wpeptide) was obtained by subcloning the following fragments into NheI and SpeI sites of pPD97.78 (A. Fire): NheI-AgeI […] fragment (2.4 kb) obtained by PCR using primer set 5′-[…]-3′ (SEQ ID NO: 44) and 5′-[…]-3′ (SEQ ID NO: 45) and N2 genomic DNA as a template, AgeI-EcoRI TagRFP fragment obtained by PCR using primer set 5′-gttgaccggt[…]-3′ (SEQ ID NO: 46) and 5′-ggcagaattcga[…]-3′ (SEQ ID NO: 47), EcoRI-SmaI peptide ([…] (SEQ ID NO: 48)) fragment digested from CMV_[…]_worm, SmaI-SpeI unc-54 3′-UTR fragment digested from pPD95.75 (Fire vector). […]
Each plasmid (40 ng/μl) was injected with a co-injection marker, sur-5p::mCherry into TWH1. The animals carrying the extrachromosomal arrays were transferred to new plates, and their progenies were analyzed at the adult stage under a widefield microscope (Zeiss AxioObserver). […]

[2] = tested on: rat primary cortical neurons; assay: Rat primary cortical neurons transduced with AAVs, immunofluorescence and immunoblot; assay type: cell-based
Description: Infected neurons were scraped from 6-well dishes and lysed with RIPA buffer containing protease inhibitor cocktail (Roche). The Triton X-100 soluble fraction was then separated from the insoluble pellet by centrifugation. Protein concentration was quantified using the DC protein assay (BioRad). For each condition, 20 μg of protein lysate was run on 4-15% acrylamide gels (BioRad) and subsequently transferred onto a polyvinylidene difluoride (PVDF) membrane. Blots were blocked with 5% skim milk in TBS+0.01% Tween-20 (TBS-T) for 1 h prior to incubation with primary antibody overnight at 4° C. Blots were subsequently washed 3 times in TBS-T for 10 minutes per wash, incubated in species specific secondary antibody for 1 h at 21° C., washed again, and then developed using ECL immunoblotting substrate (Pierce) and visualized on HyBlot CL autoradiographic film (Denville Scientific).
Pregnant rats (E17) of the Sprague-Dawley strain were purchased from Envigo. Embryos were surgically removed from the mothers and cortices dissected in Hanks Balanced salt solution (Gibco). The meninges were removed, and cells were dissociated using a papain dissociation system (Worthington) before being resuspended in Neurobasal medium A supplemented with antibiotic-antimycotic solution (Gibco), L-glutamine substitute (GlutaMAX™; Gibco) and factor B27 (Gibco). Cells were plated on poly-D-lysine coated glass coverslips at a density of 5×10^5 cells/well, or on poly-D-lysine coated 6-well cell culture plates at a density of 2×10^6 cells/well, and incubated at 37° C. in 5% CO2 with half media changes every 3 days. Cells were transduced with AAVs 2 days post-isolation at a multiplicity of infection (MOI) of 3000. Media containing AAV vectors were removed after 72 h and cells were fixed with 4% PFA for immunofluorescence staining or lysed for immunoblotting at 8 days post-isolation.
After fixation, cells were permeabilized with 0.2% Triton X-100 for 15 min, washed 3 times with PBS and then incubated with blocking solution (1% BSA, 22.52 mg/mL glycine, 0.1% Tween-20 in PBS) for 1 h. Primary antibodies were diluted in blocking solution and incubated overnight at 4° C. Following three washes with PBS, cells were next incubated with fluorescent secondary antibodies diluted in blocking solution for 1 h at room temperature. Following another 3 PBS washes, nuclei were counterstained with DAPI (ThermoFisher) and then coverslips were mounted on slides using fluorescence mounting medium (DAKO) and sealed using clear nail varnish.
Confocal images of primary cortical neurons, dopaminergic neurons, and LAMP1 staining within the SN were processed using Imaris software (Oxford instruments). Z stacks were projected to give a 3D reconstruction of the field of view and mean pixel intensity per GFP^+ cell (or RFP^+ cell for V1S/SV2 experiments) was calculated for a-syn or LAMP1 signal using the software's surfaces module. For LAMP1 staining within the SN, the number of LAMP1^+ puncta within GFP^+ cells was calculated for each field of view; 3 fields of view were imaged/animal.

DEEIERQLKALG [PDpep1.3]
neurite shortening of PDE dopaminergic neurons [1]: partially rescued
total a-syn fluorescence ([2]; neurons with V1S and SV2 or V1S alone (WT a-syn), RFP-tagged peptide vs Scramble1.3): significant lowering
LAMP1 levels ([2]; rat cortical neurons expressing human A53T a-syn): restored LAMP1 levels
YFP fluorescence from co-expressed V1S and SV2 (a-syn oligomers) ([2]; rat primary cortical neurons): reduced YFP fluorescence
endogenous a-syn fluorescence intensity ([2]; rat primary cortical neurons): reduced fluorescence intensity
total A53T a-syn protein levels by immunoblotting of neuronal lysates ([2]; rat primary cortical neurons): reduction
A53T a-syn fluorescence intensity ([2]; rat primary cortical neurons, AAV A53T a-syn plus GFP-tagged peptide, vs Scramble1.3): significant decrease
fluorescence of YFP alone ([2]; rat primary cortical neurons, control): no effect
levels of truncated A53T a-syn lacking amino acids 103-140 (HA immunostaining) ([2]; rat primary cortical neurons, vs Scramble1.3): did not reduce
